Tests used:
[1] = 4 h corrosion weight loss test (corrosion inhibition performance); details: P110 carbon steel, 20% hydrochloric acid, 90° C., 1000 ppm corrosion inhibitor
Experimental: The corrosion inhibition performance of corrosion inhibitors in the embodiments 1 to 4 is determined by a 4 h corrosion weight loss test at 90° C. using 20% hydrochloric acid as a corrosive medium and P110 carbon steels. The amount of corrosion inhibitors is 1000 ppm.

[2] = 0.1 g corrosion inhibitor in 200 mL of 20% hydrochloric acid solution, stirred, dissolution observed
[3] = Compatibility with 20% hydrochloric acid system containing iron ion stabilizer, clay stabilizer and discharge aiding agent; format: physicochemical; details: 0.1 g in 20% hydrochloric acid system with citric acid, potassium chloride and OP-10 or fluorocarbon surfactant; 90° C.
Experimental: The water solubility of the corrosion inhibitor prepared by Embodiments 1 to 4 and its compatibility with the system containing the iron ion stabilizer, clay stabilizer and discharge aiding agent under 90° C. are determined. The process is as follows: weigh 0.1 g of the corrosion inhibitor respectively, and dissolve in 200 mL of 20% hydrochloric acid solution, stir and observe its dissolution. Prepare 20% hydrochloric acid solution system adding with iron ion stabilizer citric acid, clay stabilizer potassium chloride and discharge aiding agent OP-10 or fluorocarbon surfactant, respectively, and then weigh 0.1 g of the corrosion inhibitor and add them to the 20% hydrochloric acid solution system, to observe the compatibility.

| SMILES | Inhibition rate [1] [%] | Water solubility [2] | Compatibility [3] |
| --- | --- | --- | --- |
| O=C(/C=C/c1ccccc1)CC(c1cccc(-c2cccs2)c1)[N+](Cc1ccccc1)(Cc1ccccc1)Cc1ccccc1 (stereo not drawn) [Embodiment 1] | 98.63 | Soluble reddish brown | Uniform and transparent, no |
| O=C(CC(=C(c1ccccc1)c1ccccc1)c1ccccc1)CC(/C=C/c1ccccc1)[N+]1(Cc2ccc3ccccc3c2)CCCCC1C(c1ccccc1)c1ccccc1 (stereo not drawn) [Embodiment 2] | 97.96 | Soluble reddish brown | Uniform and transparent, no |
| O=C(/C=C/c1ccccc1)CC(/C=C/c1ccccc1)[N+]1(C(c2ccccc2)(c2ccccc2)c2ccccc2)C=Cc2ccccc21 (stereo not drawn) [Embodiment 3] | 98.59 | Soluble reddish brown | Uniform and transparent, no |
| CC(O)C[N+](Cc1ccc2ccccc2c1)(CC(C)O)C(CC(=O)CC(=C(c1ccccc1)c1ccccc1)c1ccccc1)c1cccc(-c2cccs2)c1 (stereo not drawn) [Embodiment 4] | 98.41 | Soluble reddish brown | Uniform and transparent, no |

Source: patent US11161811B2, “Process for preparing Mannich base quaternary ammonium salt high-temperature resistant corrosion inhibitor and applications thereof” (SOUTHWEST PETROLEUM UNIVERSITY, priority 2018, dated 2021)
